Test results taken from PMC4965148 (PLoS ONE, 2016).
Several values for one entry are separate records, joined by “and”; a condition that tells them apart may be missing. Identical values can stand only once. Like-named read-outs stand apart in the source and are kept apart here.

Key:
rat α1β1δε nAChR = target: T1, rat α1β1δε nAChR (Rattus norvegicus, UniProt P09660+P25108+P25109+P25110); assay: Ca2+ flux (FLIPR) agonist/antagonist assay; assay type: cell-based
T1 construct: expressed in transfected cells; host or cells: HEK293 (made by Bristol-Myers Squibb)

HEK293/Human α7 nAChR = HEK293/Human α7 nAChR (Homo sapiens, UniProt P36544); assay: [3H]-A-585539 filtration binding; set-up: expressed in transfected cells
Rat Brain α7 nAChR = Rat Brain α7 nAChR (Rattus norvegicus, UniProt Q05941); assay: [3H]-A-585539 filtration binding
rat α4β2 nAChR = target: T2, rat α4β2 nAChR (Rattus norvegicus, UniProt P09483+P12390); assay: Ca2+ flux (FLIPR) agonist/antagonist assay; assay type: cell-based; details: FLIPR agonist mode; read-out: agonist EC50 at α4β2 nAChR
T2 construct: expressed in transfected cells; host or cells: HEK293 (made by Bristol-Myers Squibb)

rat α3β4 nAChR = target: T3, rat α3β4 nAChR (Rattus norvegicus, UniProt P04757+P12392); assay: Ca2+ flux (FLIPR) agonist/antagonist assay; assay type: cell-based; details: FLIPR agonist mode; read-out: agonist EC50 at α3β4 nAChR
T3 construct: expressed in transfected cells; host or cells: HEK293 (made by Bristol-Myers Squibb)

HEK293/Human 5-HT3A = target: T4, HEK293/Human 5-HT3A (Homo sapiens, UniProt P46098); assay: Ca2+ flux (FLIPR) 5-HT3A antagonist assay; assay type: cell-based
T4 construct: expressed in transfected cells; host or cells: HEK293 (made by Bristol-Myers Squibb)
T4 sequence (P46098 24-478): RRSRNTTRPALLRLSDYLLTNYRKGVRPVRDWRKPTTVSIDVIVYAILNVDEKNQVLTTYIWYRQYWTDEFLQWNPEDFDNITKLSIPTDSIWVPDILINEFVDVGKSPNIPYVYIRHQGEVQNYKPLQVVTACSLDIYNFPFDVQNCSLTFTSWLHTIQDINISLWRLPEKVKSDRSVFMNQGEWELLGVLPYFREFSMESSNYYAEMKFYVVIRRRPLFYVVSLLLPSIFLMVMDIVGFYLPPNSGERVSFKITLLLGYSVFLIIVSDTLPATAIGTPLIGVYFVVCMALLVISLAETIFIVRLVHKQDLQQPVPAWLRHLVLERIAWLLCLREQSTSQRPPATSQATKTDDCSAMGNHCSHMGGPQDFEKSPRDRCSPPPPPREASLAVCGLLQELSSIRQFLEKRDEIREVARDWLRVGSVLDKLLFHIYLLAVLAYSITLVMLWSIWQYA
Method: Functional activity was examined using Ca^2+-sensitive, dye-based, microfluorometric assays read on the FLIPR Tetra plate reader platform (Molecular Devices, CA, USA). Cells were plated in 384-well black, clear-bottomed Greiner poly-D-lysine coated plates at a density of ~25 K cells/well and incubated at 29°C for 48 h. Prior to assay, media contents were removed and cells incubated in assay buffer containing 5μM final Fluo-4 dye for 90 min. For nAChR assays, the dye-loading buffer was HBSS (#14175 Life Technologies) supplemented with 20 mM HEPES, 0.5 mM CaCl2, 1 mM MgCl2 and 10 μM atropine (final concentration). Test compounds were solubilized in DMSO and serially diluted in NUNC 384-well plates prior to addition of assay buffer (5.3 mM KCl + 140 mM NaCl + 20 mM Hepes + 25 mM CaCl2 + 1 mM MgCl2 + 10 μM atropine final concentration). Compounds diluted in assay buffer were added to the assay plate by the FLIPR and read for approximately 2 min. […] For 5-HT3A antagonist studies, the dye loading and compound diluent buffer was HBSS (#14025 Life Technologies) supplemented with 20 mM HEPES (final concentration) and the concentration of 5-HT used in the assay was 2 μM. Offline transformation of concentration response data was done using a 4 parameter logistic fit using a Bristol-Myers Squibb proprietary informatics software suite.

Chain of HEK293/Human α7 nAChR (P36544 23-502): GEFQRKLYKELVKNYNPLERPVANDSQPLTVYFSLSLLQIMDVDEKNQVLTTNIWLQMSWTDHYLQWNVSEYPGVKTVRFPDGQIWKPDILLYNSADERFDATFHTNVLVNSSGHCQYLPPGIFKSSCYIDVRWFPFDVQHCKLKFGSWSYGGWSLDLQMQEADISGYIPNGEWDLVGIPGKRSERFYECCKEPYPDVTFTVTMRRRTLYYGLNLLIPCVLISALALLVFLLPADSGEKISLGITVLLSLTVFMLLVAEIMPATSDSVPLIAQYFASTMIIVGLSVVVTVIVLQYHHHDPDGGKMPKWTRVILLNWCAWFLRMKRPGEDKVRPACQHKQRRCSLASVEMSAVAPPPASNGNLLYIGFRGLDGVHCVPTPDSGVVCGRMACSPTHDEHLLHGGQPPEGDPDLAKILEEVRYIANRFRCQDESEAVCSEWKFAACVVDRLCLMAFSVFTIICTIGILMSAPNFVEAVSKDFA
Chain of Rat Brain α7 nAChR (Q05941 23-502): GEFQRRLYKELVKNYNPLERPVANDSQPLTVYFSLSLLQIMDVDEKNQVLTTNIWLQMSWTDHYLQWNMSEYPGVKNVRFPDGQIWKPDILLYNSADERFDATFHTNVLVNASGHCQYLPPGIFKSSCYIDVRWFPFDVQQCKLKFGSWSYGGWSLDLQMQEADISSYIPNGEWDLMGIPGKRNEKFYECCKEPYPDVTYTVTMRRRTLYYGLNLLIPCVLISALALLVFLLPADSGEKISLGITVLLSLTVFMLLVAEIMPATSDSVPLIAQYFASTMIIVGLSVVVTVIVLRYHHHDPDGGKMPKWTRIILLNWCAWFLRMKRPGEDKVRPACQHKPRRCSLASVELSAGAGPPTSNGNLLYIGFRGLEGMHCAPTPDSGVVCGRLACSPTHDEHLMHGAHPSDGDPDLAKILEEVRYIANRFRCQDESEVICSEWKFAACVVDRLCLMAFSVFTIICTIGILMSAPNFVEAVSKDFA
T1 sequence (P25108 21-457): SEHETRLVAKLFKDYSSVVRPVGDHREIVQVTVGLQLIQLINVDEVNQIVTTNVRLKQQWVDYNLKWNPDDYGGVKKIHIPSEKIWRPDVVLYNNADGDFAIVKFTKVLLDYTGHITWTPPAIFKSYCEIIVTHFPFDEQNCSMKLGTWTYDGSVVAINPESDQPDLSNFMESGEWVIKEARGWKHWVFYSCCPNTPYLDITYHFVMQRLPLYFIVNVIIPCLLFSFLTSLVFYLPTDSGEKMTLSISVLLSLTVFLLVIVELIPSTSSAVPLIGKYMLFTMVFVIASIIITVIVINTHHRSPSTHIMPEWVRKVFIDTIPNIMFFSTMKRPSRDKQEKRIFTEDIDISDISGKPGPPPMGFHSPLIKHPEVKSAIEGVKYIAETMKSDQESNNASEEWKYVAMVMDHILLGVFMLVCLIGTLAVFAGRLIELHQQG
T1 sequence (P25109 24-501): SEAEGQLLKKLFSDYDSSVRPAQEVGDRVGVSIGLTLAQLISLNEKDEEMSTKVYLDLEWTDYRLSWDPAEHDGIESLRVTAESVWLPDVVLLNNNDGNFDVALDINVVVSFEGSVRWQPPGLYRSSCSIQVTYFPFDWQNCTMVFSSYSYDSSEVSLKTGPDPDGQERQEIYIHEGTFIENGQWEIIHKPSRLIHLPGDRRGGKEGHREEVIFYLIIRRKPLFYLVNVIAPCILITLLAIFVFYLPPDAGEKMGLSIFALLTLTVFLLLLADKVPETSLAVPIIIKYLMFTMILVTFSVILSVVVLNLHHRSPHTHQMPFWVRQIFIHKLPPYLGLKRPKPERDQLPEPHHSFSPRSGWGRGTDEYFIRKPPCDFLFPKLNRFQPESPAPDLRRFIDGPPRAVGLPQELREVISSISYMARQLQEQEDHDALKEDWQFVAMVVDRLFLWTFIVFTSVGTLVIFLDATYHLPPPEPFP
T1 sequence (P25110 22-517): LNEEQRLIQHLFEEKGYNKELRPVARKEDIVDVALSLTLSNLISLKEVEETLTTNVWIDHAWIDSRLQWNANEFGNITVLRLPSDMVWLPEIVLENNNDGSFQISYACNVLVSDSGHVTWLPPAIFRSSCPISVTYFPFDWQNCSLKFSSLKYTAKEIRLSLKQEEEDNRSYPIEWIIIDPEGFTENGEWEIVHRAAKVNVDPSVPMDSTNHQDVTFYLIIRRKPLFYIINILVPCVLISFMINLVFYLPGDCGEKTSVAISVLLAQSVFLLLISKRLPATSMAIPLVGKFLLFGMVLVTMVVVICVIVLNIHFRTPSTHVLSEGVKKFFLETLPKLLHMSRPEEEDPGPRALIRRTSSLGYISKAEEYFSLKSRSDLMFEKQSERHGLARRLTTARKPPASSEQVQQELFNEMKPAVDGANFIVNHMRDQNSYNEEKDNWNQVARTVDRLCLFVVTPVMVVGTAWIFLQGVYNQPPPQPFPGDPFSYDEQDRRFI
T1 sequence (P09660 21-494): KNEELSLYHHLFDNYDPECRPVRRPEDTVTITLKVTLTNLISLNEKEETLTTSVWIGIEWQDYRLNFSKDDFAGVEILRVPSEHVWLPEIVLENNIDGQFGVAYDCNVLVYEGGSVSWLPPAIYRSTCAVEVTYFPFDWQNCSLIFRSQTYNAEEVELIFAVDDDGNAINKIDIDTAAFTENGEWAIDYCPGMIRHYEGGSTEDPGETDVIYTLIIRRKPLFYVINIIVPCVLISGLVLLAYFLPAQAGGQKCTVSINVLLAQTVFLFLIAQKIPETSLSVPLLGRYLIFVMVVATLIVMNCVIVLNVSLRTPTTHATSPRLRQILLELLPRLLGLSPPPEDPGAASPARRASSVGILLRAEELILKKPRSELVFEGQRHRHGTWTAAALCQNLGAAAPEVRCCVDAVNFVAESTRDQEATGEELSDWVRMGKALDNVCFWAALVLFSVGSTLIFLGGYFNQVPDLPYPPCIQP
T2 sequence (P09483 31-630): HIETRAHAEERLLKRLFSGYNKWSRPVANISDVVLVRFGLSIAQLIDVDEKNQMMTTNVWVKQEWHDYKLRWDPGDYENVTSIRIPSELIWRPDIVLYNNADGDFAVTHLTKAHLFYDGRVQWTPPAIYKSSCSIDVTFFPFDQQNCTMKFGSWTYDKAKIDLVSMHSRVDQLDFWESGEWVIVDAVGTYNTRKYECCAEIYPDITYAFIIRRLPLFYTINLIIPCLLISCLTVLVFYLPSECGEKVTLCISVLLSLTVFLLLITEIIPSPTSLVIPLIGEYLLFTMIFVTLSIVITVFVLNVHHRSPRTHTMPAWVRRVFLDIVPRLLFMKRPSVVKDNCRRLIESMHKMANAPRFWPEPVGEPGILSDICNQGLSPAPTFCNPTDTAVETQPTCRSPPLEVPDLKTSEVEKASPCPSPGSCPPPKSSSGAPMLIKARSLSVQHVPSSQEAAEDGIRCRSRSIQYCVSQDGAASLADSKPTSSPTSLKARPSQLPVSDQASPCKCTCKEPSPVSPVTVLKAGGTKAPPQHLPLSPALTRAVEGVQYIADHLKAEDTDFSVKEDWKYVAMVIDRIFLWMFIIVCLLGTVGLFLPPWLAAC
T2 sequence (P12390 25-500): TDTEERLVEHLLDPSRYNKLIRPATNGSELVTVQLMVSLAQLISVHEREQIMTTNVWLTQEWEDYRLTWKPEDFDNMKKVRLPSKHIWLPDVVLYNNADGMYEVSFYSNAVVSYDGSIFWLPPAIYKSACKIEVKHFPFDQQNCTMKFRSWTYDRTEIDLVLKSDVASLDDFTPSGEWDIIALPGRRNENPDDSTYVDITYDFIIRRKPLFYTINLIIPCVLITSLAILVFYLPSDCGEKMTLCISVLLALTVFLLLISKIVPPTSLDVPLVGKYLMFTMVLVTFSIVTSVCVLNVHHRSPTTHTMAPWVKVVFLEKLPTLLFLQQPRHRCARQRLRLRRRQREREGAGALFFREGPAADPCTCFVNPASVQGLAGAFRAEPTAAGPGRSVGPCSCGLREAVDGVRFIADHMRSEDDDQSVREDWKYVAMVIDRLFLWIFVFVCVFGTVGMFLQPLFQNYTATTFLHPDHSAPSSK
T3 sequence (P04757 26-499): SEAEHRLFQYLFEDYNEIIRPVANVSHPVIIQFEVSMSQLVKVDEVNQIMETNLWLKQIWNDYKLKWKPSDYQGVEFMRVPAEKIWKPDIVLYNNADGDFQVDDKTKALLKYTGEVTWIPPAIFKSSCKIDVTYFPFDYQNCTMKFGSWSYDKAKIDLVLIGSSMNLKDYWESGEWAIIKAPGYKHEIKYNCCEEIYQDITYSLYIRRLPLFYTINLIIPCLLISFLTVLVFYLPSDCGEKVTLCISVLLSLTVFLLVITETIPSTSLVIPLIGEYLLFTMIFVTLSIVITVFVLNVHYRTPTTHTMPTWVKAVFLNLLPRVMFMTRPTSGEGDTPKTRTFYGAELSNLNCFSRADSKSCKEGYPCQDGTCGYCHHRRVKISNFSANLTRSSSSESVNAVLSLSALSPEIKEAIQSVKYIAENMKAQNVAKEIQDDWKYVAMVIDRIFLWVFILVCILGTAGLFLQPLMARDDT
T3 sequence (P12392 21-495): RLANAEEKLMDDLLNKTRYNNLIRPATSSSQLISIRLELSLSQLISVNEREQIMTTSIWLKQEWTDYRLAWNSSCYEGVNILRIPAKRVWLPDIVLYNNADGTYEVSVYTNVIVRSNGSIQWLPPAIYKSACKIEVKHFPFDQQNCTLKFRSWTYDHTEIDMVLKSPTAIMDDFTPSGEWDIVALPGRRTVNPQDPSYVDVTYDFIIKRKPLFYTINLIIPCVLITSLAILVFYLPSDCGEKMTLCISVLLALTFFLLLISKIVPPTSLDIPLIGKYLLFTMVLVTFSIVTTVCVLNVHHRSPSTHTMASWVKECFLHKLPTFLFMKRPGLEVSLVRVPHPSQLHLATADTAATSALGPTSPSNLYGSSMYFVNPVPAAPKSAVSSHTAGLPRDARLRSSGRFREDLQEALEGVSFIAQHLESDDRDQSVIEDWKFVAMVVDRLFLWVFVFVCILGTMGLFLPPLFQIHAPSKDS

Clc1ccc(C2CC3CCC2N3)cn1 (racemic) [Epibatidine, (±)epibatidine]
EC50 (rat α1β1δε nAChR): > 1000 nM
Ki (HEK293/Human α7 nAChR; HEK293/Human α7 nAChR Mean ± SD Ki, displacement of [3H]-A-585539): 10.5 ± 1.58 nM
Ki (HEK293/Human α7 nAChR; HEK293/human α7 nAChR Ki (individual), individual determinations): 9.7 nM (2×) and 12.9 nM and 9.8 nM

C[N+]1(C)CC2CC1CN2c1ccc(-c2ccccc2)nn1 (centres unmarked) [[^3H]-A-585539, ^3H-2,2-dimethyl-5-(6-phenyl-3-pyridazinyl)-5-aza-2-azoniabicyclo[2.2.1]heptane iodide]
Kd (HEK293/Human α7 nAChR; recombinant human α7 nAChR, n = 2, read-out: mean Kd, saturation binding): 0.656 nM

CN1CC2CN(c3ccc(-c4ccccc4)nn3)CC2C1.Cl.Cl (centres unmarked) [A-582941, octahydro-2-methyl-5-(6-phenyl-3-pyridazinyl)-pyrrolo[3,4-c]pyrrole dihydrochloride]
EC50 (rat α1β1δε nAChR; FLIPR agonist mode, read-out: agonist EC50 at α1β1δε nAChR): > 100000 nM
Ki (Rat Brain α7 nAChR; Rat Brain α7 nAChR Ki (individual)): 23 nM and 20.3 nM
Ki (Rat Brain α7 nAChR; Rat Brain α7 nAChR Mean ± SD Ki): 21.7 nM
EC50 (rat α4β2 nAChR): > 100000 nM
EC50 (rat α3β4 nAChR): > 100000 nM
Ratio (5-HT3A IC50 / α7 nAChR EC50; functional selectivity) (HEK293/Human 5-HT3A; FLIPR): 1.1
IC50 (HEK293/Human 5-HT3A; HEK293/Human 5-HT3A Mean ± SD IC50, Ca2+ flux (FLIPR), antagonism of 2 μM 5-HT): 102 ± 86 nM
IC50 (HEK293/Human 5-HT3A; Human 5-HT3A IC50 values (individual), FLIPR, individual determinations): 73 nM and 75 nM and 76 nM and 109 nM and 47 nM and 79 nM and 59 nM and 86 nM and 344 nM and 72 nM
Ki (HEK293/Human α7 nAChR; HEK293/Human α7 nAChR Mean ± SD Ki): 82.6 nM
Ki (HEK293/Human α7 nAChR; HEK293/human α7 nAChR Ki (individual)): 99 nM and 72.5 nM and 76.3 nM
